The values below come from US5962463A, “Methods of stimulating non-amyloidogenic processing of the amyloid precursor protein” (Massachusetts Institute Of Technology, priority 1997, dated 1999).

In series [1] the target is T1, human brain serotonin 5HT1C receptor (Homo sapiens, UniProt P28335).
T1 sequence (P28335 33-458): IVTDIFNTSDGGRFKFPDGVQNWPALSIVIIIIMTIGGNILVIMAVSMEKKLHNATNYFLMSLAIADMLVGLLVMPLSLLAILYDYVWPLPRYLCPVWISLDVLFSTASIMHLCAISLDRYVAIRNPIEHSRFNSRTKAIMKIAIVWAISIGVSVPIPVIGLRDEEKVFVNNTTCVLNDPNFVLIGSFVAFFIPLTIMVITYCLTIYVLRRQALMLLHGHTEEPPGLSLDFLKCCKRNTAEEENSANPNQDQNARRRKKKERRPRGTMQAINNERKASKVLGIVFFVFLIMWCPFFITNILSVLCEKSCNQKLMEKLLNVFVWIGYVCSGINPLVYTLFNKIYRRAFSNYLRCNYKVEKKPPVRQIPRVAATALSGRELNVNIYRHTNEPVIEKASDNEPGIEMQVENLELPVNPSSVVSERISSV
The settings on record: for effect on receptor-activated APP release in response to dexnorfenfluramine: 5HT1C transfected cell lines, FIG. 3.

For series [2], the target named is human brain serotonin 5HT2 receptor (Homo sapiens, UniProt P28223). The settings on record: for effect on receptor-activated APP release in response to serotonin: 5HT2 transfected cell lines, insert in FIG. 1C.
The subject of series [3] is APP release. Description: APP release and cell-associated APP in serotonin receptor transfected 3T3 cells (receptor subtype not stated). In kind it is cell-based, human.
For series [4] the following is noted: taken orally by an individual; cited from earlier work.
The test system of series [5] is nontransfected human 3T3 cells. In words: Basal release of APP fragments from wild-type (nontransfected) 3T3 cells. The format is cell-based. The settings on record: wild-type cell lines, FIGS. 1A and 1C. From the text: Cultured human NIH 3T3 fibroblasts were utilized.
Molecular weight standards were obtained from Amersham.

The test system of series [6] is slices of rat brain. Conditions: 100 μM, incubated in slices of rat brain; cited from earlier work.
Series [7] has as its system human serotonin-1C surface receptor. In words: Phosphatidylinositol turnover in NIH 3T3 cells expressing the 5HT1C receptor. The format is cell-based. Conditions: NIH 3T3 cells expressing 5-HT1C, FIG. 2B. The source says:
FIG. 2A is a graphic representation of concentration dependent APP^S release by NIH 3T3 cells transfected with and expressing the gene for the human serotonin-1C surface receptor in response to activation by dexnorfenfluramine. FIG. 2B is a graphic representation of phosphatidylinositol turnover in the same cells in response to activation by dexnorfenfluramine.
In this instance, the agent interacts with and stimulates the serotonin surface receptor directly. […] Additional evidence is provided by the observation that turnover of phosphatidylinositol is stimulated in these cells by dexnorfenfluramine (FIG. 2B).

Setting [8] is: stimulation with serotonin, Western blot.
Setting [9] is: 10 μM serotonin, 5HT2 transfected cells, FIG. 1D.

Structures can show the parent of a compound that is named as a salt.

Take `O=C(c1ccc(F)cc1)C1CCN(CCn2c(=O)[nH]c3ccccc3c2=O)CC1` [ketanserin]: the “effect on receptor-activated APP release in response to dexnorfenfluramine” value (“effect … to dexnorfenfluramine” for short) in series [1] was “blocked”. Moreover, the “effect on receptor-activated APP release in response to serotonin” value in series [2] is listed as “blocked”.
For `CN1CCN2c3ccccc3Cc3ccccc3C2C1` (centres unmarked) [mianserin], the “effect … to dexnorfenfluramine” value in series [1] is reported as “blocked”.
Turning to `CNc1ccc2oc(C[C@H]3O[C@@]4(CC[C@H]3C)O[C@H]([C@H](C)C(=O)c3ccc[nH]3)[C@H](C)C[C@H]4C)nc2c1C(=O)O` [A23187], the “ability to mimic the receptor-mediated stimulation of basal APP release” value in series [3] (calcium ionophore, increased intracellular calcium alone) is “failure”.
Regarding `CCN[C@@H](C)Cc1cccc(C(F)(F)F)c1` [dexfenfluramine], in series [4], the “amounts of dexfenfluramine and its de-ethylated metabolite dexnorfenfluramine appearing in the brain” value is recorded as “roughly equal amounts”.
With `Cc1nc2sccn2c(=O)c1CCN1CCC(=C(c2ccc(F)cc2)c2ccc(F)cc2)CC1` [ritanserin], in series [1], the “effect … to dexnorfenfluramine” value was “blocked”. Also, in series [2], the “effect on receptor-activated APP release in response to serotonin” value is on record as “blocked”.
`NCCc1c[nH]c2ccc(O)cc12` [serotonin]: the “stimulation of basal release of APP fragments” value in series [5] is “not stimulated”. In addition, in series [3] (setting [8]), the “128 kD APP derivative secreted into the culture medium” value is “increase”, the “abundance of cell-associated 115 kD APP” value is “remained unaffected” and the “abundance of cell-associated 141 kD APP” value is “decreased”. Moreover, in series [2] (setting [9]), the “time to half-maximal stimulation of APP release” value lay within 30 to 40 min and the “time to maximum stimulation of APP release” value was at most 120 min.
Turning to `C[C@H](N)Cc1cccc(C(F)(F)F)c1` [dexnorfenfluramine, (+) 1-[3-(trifluoromethyl)-phenyl] propan-2-amine hydrochloride], the “increase of basal APP release” value in series [1] (5HT1C transfected cells, normalized to vehicle-treated controls) came to 3 fold. The “increase in the release of serotonin” value in series [6] is 6-7 fold. Further, in series [7], the turnover of phosphatidylinositol result is listed as “stimulated”.
On to `CN[C@@H]1C[C@H]2O[C@@](C)([C@@H]1OC)n1c3ccccc3c3c4c(c5c6ccccc6n2c5c31)C(=O)NC4` [staurosporine], for which, in series [3] (serotonin-stimulated transfected cells), the “effect on the serotonin effect on APP release” value was “inhibited”.
